In patent US6861390B2, “Derivatives of UK-2A” (priority 2001, dated 2005):
Where two headings read alike, the source gives them in different places.

Legend:
[1] = system: Puccinia recondita (PUCCRT); assay: Brown Rust of Wheat, whole plant 24 Hour Protectant (T5); settings: read-out: T5 PUCCRT in vivo 1 Day Protectant, control of fungal infection
[2] = system: Magnaporthe grisea (Pyricularia oryzae, PYRIOR); assay: microbe, parasite or virus in culture; format: cell-based; settings: read-out: T9 PYRIOR in vitro Growth Inhibition
[3] = system: Phytophthora infestans (PHYTIN); assay: whole plant or invertebrate; settings: in Solanum lycopersicum, 24 h, read-out: T3 PHYTIN in vivo 1 Day Protectant, control of fungal infection
[4] = system: Stagonospora nodorum (Leptosphaeria nodorum, LEPTNO); assay: microbe, parasite or virus in culture; format: cell-based; settings: Parastagonospora nodorum, read-out: T7 LEPTNO in vitro Growth Inhibition
[5] = system: Leptosphaeria nodorum (LEPTNO); assay: Glume Blotch of Wheat, whole plant 24 Hour Protectant (T2); settings: Parastagonospora nodorum, read-out: T2 LEPTNO in vivo 1 Day Protectant, control of fungal infection
[6] = system: Phytophthora infestans (PHYTIN); assay: microbe, parasite or virus in culture; format: cell-based; settings: in Secale cereale, read-out: T8 PHYTIN in vitro Growth Inhibition
[7] = system: Ustilago maydis (USTIMA); assay: microbe, parasite or virus in culture; format: cell-based; settings: Mycosarcoma maydis, read-out: T12 USTIMA in vitro Growth Inhibition
[8] = system: Mycosphaerella graminicola (Septoria tritici, SEPTTR); assay: microbe, parasite or virus in culture; format: cell-based; settings: Zymoseptoria tritici, read-out: T11 SEPTTR in vitro Growth Inhibition
[9] = system: Erysiphe graminis (ERYSGT); assay: Powdery Mildew of Wheat, whole plant 24 Hour Protectant (T1); settings: Blumeria graminis, in Triticum aestivum, read-out: T1 ERYSGT in vivo 1 Day Protectant, control of fungal infection
[10] = system: Rhizoctonia solani (RHIZSO); assay: microbe, parasite or virus in culture; format: cell-based; settings: read-out: T10 RHIZSO in vitro Growth Inhibition
[11] = system: Septoria tritici (SEPTTR); assay: Leaf Blotch of Wheat, whole plant 24 Hour Protectant (T6); settings: Zymoseptoria tritici; wheat (cultivar Monon), sprayed at 100 ppm, inoculated after 24 hours; read-out: T6 SEPTTR in vivo 1 Day Protectant, control of fungal infection
[12] = wheat (cultivar Yuma), sprayed at 100 ppm, inoculated after 24 hours

| SMILES | pest or weed control at 100 ppm [1, 12] [%] | inhibition at 25 ppm [2] [%] | pest or weed control at 100 ppm [3] [%] | inhibition at 25 ppm [4] [%] | pest or weed control at 100 ppm [5, 12] [%] | inhibition at 25 ppm [6] [%] | inhibition at 25 ppm [7] [%] | inhibition at 25 ppm [8] [%] | pest or weed control at 100 ppm [9] [%] | inhibition at 25 ppm [10] [%] | pest or weed control at 100 ppm [11] [%] | pest or weed control at 100 ppm ([1]; 24 h) [%] | pest or weed control at 100 ppm ([5]; 24 h) [%] |
| --- | --- | --- | --- | --- | --- | --- | --- | --- | --- | --- | --- | --- | --- |
| CCCOCOc1c(OC)ccnc1C(=O)N[C@H]1COC(=O)[C@H](Cc2ccccc2)[C@@H](OC(=O)C(C)C)[C@H](C)OC1=O [Compound 6] | 75 to 100 | < 80 | < 25 | > 80 | 75 to 100 | < 80 | < 80 | < 80 | 25 to 74 | < 80 |  |  |  |
| COc1ccnc(C(=O)N[C@H]2COC(=O)[C@H](Cc3ccccc3)[C@@H](OC(=O)C(C)C)[C@H](C)OC2=O)c1OCOC(C)(C)C [Compound 8] | 75 to 100 | < 80 | < 25 | > 80 | 75 to 100 | < 80 | > 80 | < 80 | < 25 | < 80 | 75 to 100 |  |  |
| COCCOCOc1c(OC)ccnc1C(=O)N[C@H]1COC(=O)[C@H](Cc2ccccc2)[C@@H](OC(=O)C(C)C)[C@H](C)OC1=O [Compound 11] | 75 to 100 |  | < 25 |  | 75 to 100 |  |  |  | 25 to 74 |  |  |  |  |
| COCC(C)OCOc1c(OC)ccnc1C(=O)N[C@H]1COC(=O)[C@H](Cc2ccccc2)[C@@H](OC(=O)C(C)C)[C@H](C)OC1=O (stereo partly shown) [Compound 12] | 75 to 100 | > 80 | < 25 | > 80 | 75 to 100 | < 80 | > 80 | > 80 | 25 to 74 | > 80 | 75 to 100 |  |  |
| COc1ccnc(C(=O)N[C@H]2COC(=O)[C@H](Cc3ccccc3)[C@@H](OC(=O)C(C)C)[C@H](C)OC2=O)c1OC(C)OC (stereo partly shown) [Compound 16] |  | > 80 | < 25 | > 80 | 75 to 100 | < 80 | < 80 | > 80 | < 25 | < 80 |  |  |  |
| COc1ccnc(C(=O)N[C@H]2COC(=O)[C@H](Cc3ccccc3)[C@@H](OC(=O)C(C)C)[C@H](C)OC2=O)c1OCOC(=O)C(C)C [Compound 23] |  | < 80 | < 25 | > 80 |  | < 80 | > 80 | < 80 | 25 to 74 | < 80 |  | 75 to 100 | 75 to 100 |
| COc1ccnc(C(=O)N[C@H]2COC(=O)[C@H](Cc3ccccc3)[C@@H](OC(=O)C(C)C)[C@H](C)OC2=O)c1OCOC(=O)OC(C)C [Compound 47] | 75 to 100 |  | < 25 |  | 75 to 100 |  |  |  | < 25 |  |  |  |  |
| C=CCO[C@H]1[C@H](C)OC(=O)[C@@H](NC(=O)c2nccc(OC)c2OCOC(C)=O)COC(=O)[C@@H]1Cc1ccccc1 [Compound 52] | 75 to 100 | > 80 | < 25 | > 80 | 75 to 100 | < 80 | < 80 | > 80 | < 25 | > 80 |  |  |  |
| COc1ccnc(C(=O)N[C@H]2COC(=O)[C@H](Cc3ccccc3)[C@@H](OCC(C)C)[C@H](C)OC2=O)c1OCOCC(C)C [Compound 65] | 75 to 100 |  | < 25 |  | 75 to 100 |  |  |  | < 25 |  | 75 to 100 |  |  |
| COCCOC(C)C(=O)OCOc1c(OC)ccnc1C(=O)N[C@H]1COC(=O)[C@H](Cc2ccccc2)[C@@H](OC(=O)C(C)C)[C@H](C)OC1=O (stereo partly shown) [Compound 66] | 75 to 100 | < 80 | < 25 | < 80 | 75 to 100 | < 80 | < 80 | < 80 |  | < 80 |  |  |  |
| COc1ccnc(C(=O)N[C@H]2COC(=O)[C@H](Cc3ccccc3)[C@@H](OC(=O)C(C)C)[C@H](C)OC2=O)c1OCOC(=O)C(C)OC (stereo partly shown) [Compound 67] | 75 to 100 | < 80 | < 25 | < 80 | 75 to 100 | < 80 | > 80 | < 80 |  | < 80 |  |  |  |
| CCOC(C)C(=O)OCOc1c(OC)ccnc1C(=O)N[C@H]1COC(=O)[C@H](Cc2ccccc2)[C@@H](OC(=O)C(C)C)[C@H](C)OC1=O (stereo partly shown) [Compound 68] | 75 to 100 | < 80 | < 25 | > 80 | 75 to 100 | < 80 | > 80 | > 80 |  | > 80 |  |  |  |
| CCCOC(C)C(=O)OCOc1c(OC)ccnc1C(=O)N[C@H]1COC(=O)[C@H](Cc2ccccc2)[C@@H](OC(=O)C(C)C)[C@H](C)OC1=O (stereo partly shown) [Compound 69] | 75 to 100 | > 80 | < 25 | > 80 | 75 to 100 | < 80 | > 80 | > 80 |  | > 80 |  |  |  |
| COc1ccnc(C(=O)N[C@H]2COC(=O)[C@H](Cc3ccccc3)[C@@H](OC(=O)C(C)C)[C@H](C)OC2=O)c1OCOC(=O)COCC(F)(F)F [Compound 70] | 75 to 100 | < 80 | < 25 | > 80 | 75 to 100 | < 80 | > 80 | < 80 |  | < 80 |  |  |  |
| COc1ccnc(C(=O)N[C@H]2COC(=O)[C@H](Cc3ccccc3)[C@@H](OC)[C@H](C)OC2=O)c1OCOC(C)=O [Compound 71] |  | > 80 |  | > 80 |  | < 80 | > 80 | > 80 |  | < 80 |  |  |  |
| COCCOCCOCC(=O)OCOc1c(OC)ccnc1C(=O)N[C@H]1COC(=O)[C@H](Cc2ccccc2)[C@@H](OC(=O)C(C)C)[C@H](C)OC1=O [Compound 75] |  | > 80 | < 25 | > 80 |  | < 80 | > 80 | > 80 | 75 to 100 | < 80 |  |  |  |
